In patent publication US20240109912A1, “TRICYCLIC PYRIMIDINES AS CYCLIN-DEPENDENT KINASE 7 (CDK7) INHIBITORS” (JANSSEN PHARMACEUTICA NV, priority 2020, published 2024):
Several values for one entry are separate records, joined by “and”; a condition that tells them apart may be missing. Identical values can stand only once. Like-named read-outs stand apart in the source and are kept apart here.

What was measured:
[1] = system: RNA polymerase II Serine 5 phosphorylation in A549 cells overexpressing CDK7 mutant (C312S); test: Imaging-based cellular RNA PolII Ser5 phosphorylation assay in A549 cells overexpressing CDK7-mutant (C312S); assay type: cell-based, human; settings: for IC50: Homo sapiens, A549, A549 cells overexpressing CDK7 mutant (C312S), read-out: CDK7_ A549 mutant hCDK7(pIC50) (converted); for CDK7_ A549 mutant hCDK7(pIC50): A549 cells overexpressing CDK7 mutant (C312S)
Protocol: Data were calculated and analyzed in Phaedra.
From this an IC50 value can be obtained.
In parallel this assay was performed in A549 cells overexpressing CDK7-mutant (C312S) to evaluate the effect of the covalent bond on potency and to screen for potential off-target effects. Mutation of Cysteine to Serine (C312S), a less nucleophilic amino acid, prevents CDK7 inhibitors from covalently binding to CDK7 and from inhibiting CDK7 activity in an irreversible manner. A stably transduced A549 cell pool was generated that overexpresses CDK7 mutant (C312S), but also expresses endogenous CDK7-WT. Covalent binders targeting the cysteine at position 312 will show a shift in potency in A549 cells overexpressing mutant C312S CDK7.

[2] = system: RNA polymerase II Serine 5 phosphorylation (CDK7) in A549 cells
[3] = molecular target: CDK7/cyclinH/MAT1 trimeric complex (Homo sapiens (Human), UniProt P50613); test: In vitro CDK7 assay, potency of irreversible covalent inhibitors (kinact/KI)
CDK7/cyclinH/MAT1 trimeric complex, sequence (P50613 whole entry): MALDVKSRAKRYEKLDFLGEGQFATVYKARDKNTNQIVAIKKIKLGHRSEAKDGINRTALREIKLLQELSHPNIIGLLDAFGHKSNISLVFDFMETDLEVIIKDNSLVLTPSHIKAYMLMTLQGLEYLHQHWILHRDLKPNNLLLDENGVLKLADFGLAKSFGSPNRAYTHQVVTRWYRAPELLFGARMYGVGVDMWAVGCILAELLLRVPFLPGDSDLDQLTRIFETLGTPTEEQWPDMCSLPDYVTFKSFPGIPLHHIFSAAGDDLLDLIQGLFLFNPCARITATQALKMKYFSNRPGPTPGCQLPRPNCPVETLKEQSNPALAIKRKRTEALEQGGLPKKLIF
CDK7/cyclinH/MAT1 trimeric complex, sequence (P51946 whole entry partner): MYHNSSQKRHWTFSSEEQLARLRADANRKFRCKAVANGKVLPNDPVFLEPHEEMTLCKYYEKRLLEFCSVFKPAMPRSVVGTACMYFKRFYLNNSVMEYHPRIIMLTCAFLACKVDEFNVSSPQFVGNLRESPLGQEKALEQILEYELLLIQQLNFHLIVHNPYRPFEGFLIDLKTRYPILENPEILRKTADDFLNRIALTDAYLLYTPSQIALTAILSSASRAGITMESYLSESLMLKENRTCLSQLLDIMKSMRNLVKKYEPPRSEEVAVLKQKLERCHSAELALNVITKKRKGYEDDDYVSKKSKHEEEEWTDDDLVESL
CDK7/cyclinH/MAT1 trimeric complex, sequence (P51948 whole entry partner): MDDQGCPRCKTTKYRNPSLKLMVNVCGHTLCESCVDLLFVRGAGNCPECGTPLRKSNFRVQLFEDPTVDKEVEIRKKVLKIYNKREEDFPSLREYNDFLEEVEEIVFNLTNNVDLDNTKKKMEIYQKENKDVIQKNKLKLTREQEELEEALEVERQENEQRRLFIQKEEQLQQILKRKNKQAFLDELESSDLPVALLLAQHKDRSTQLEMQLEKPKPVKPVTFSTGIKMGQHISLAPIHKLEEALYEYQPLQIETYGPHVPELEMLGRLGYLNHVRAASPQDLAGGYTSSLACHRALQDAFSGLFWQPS

[4] = read-out: CDK7 (kinact, s^−1), Table B
[5] = read-out: CDK7 (kinact/KI, M^−1*s^−1), Table B
[6] = CDK7 (20 nM enz.) (KI, μM), 20 nM enz.
[7] = read-out: CDK7 (20 nM enz.) (kinact, s^−1), 20 nM enz.
[8] = read-out: CDK7 (20 nM enz.) (kinact/ KI, M^−1*s^−1), 20 nM enz.

Row | IC50 [1] [nM] | IC50 [2] | Ki ([3]; CDK7 (KI(μM)), Table B) [µM] | kinact [3, 4] [s⁻¹] | kinact/KI [3, 5] [M⁻¹ s⁻¹] | Ki [3, 6] | kinact [3, 7] [s⁻¹] | kinact/KI [3, 8] [M⁻¹ s⁻¹] | CDK7_ A549 mutant hCDK7(pIC50) [1] | CDK7 (20 nM enz.) (kinact, s^−1) ([3]; 20 nM enz.) [s⁻¹] | CDK7 (20 nM enz.) (kinact/ KI, M^−1*s^−1) ([3]; 20 nM enz.) [M⁻¹ s⁻¹] | CDK7 (20 nM enz.) (kobs/[I], M^−1*s^−1) ([3]; 20 nM enz.) [M⁻¹ s⁻¹] | SMILES
1 | > 10000 | 2090 nM | 0.72 | 0.000216 | 306 |  |  |  |  |  |  |  | C=CC(=O)N1CC(N2CC[C@H](c3ccc4c(c3)Nc3ncnc(N5CCOCC5)c3CO4)C2)C1 (single isomer, unassigned) [compound 9]
2 | > 10000 | 200 nM |  |  |  | 0.302 µM | 7.72e-05 | 256 |  |  |  |  | C=CC(=O)N1CC[C@H](N2CCC(c3cc(F)c4c(c3)Nc3ncnc(N5CCOCC5)c3CO4)CC2)C1 (single isomer, unassigned) [compound 50]
3 | > 10000 | 324 nM |  |  |  | 0.643 µM | 8.79e-05 | 137 |  |  |  |  | C=CC(=O)N1CC[C@@H](N2CCC(c3cc(F)c4c(c3)Nc3ncnc(N5CCOCC5)c3CO4)CC2)C1 (single isomer, unassigned) [compound 51]
4 | > 10000 | 1050 nM |  |  |  | 1.36 µM | 7.77e-05 | 57.2 |  |  |  |  | C=CC(=O)N1CC[C@H](N2CC(c3cc(F)c4c(c3)Nc3ncnc(N5CCOCC5)c3CO4)C2)C1 (single isomer, unassigned) [compound 54]
5 | > 10000 | 933 nM |  |  |  | 1.04 µM | 6.83e-05 | 65.7 |  |  |  |  | C=CC(=O)N1CC[C@@H](N2CC(c3cc(F)c4c(c3)Nc3ncnc(N5CCOCC5)c3CO4)C2)C1 (single isomer, unassigned) [compound 55]
6 | > 10000 | 3240 nM |  |  |  | 4.2 µM | 8.48e-05 | 20.2 |  |  |  |  | C=CC(=O)N1CC(N2CCC(c3ccc4c(c3)Nc3ncnc(N5CCOCC5)c3[C@@H](C)O4)CC2)C1 (single isomer, unassigned) [compound 56]
7 | > 10000 | 263 nM |  |  |  | 0.0876 µM | 7.7e-05 | 879 |  |  |  |  | C=CC(=O)N1CC(N2CCC(c3ccc4c(c3)Nc3ncnc(N5CCOCC5)c3[C@H](C)O4)CC2)C1 (single isomer, unassigned) [compound 57]
8 | > 10000 | 5370 nM |  |  |  | 0.168 µM | 3.85e-05 | 229 |  |  |  |  | C=CC(=O)N1CC[C@H](N2CC(c3cc4c(c(C)n3)OCc3c(ncnc3N3CCS(=O)(=O)CC3)N4)C2)C1 (single isomer, unassigned) [compound 78]
9 | > 10000 | 4570 nM |  |  |  | 0.189 µM | 3.93e-05 | 209 |  |  |  |  | C=CC(=O)N1CC[C@@H](N2CC(c3cc4c(c(C)n3)OCc3c(ncnc3N3CCS(=O)(=O)CC3)N4)C2)C1 (single isomer, unassigned) [compound 79]
10 |  | 138 nM |  |  |  | 0.059 µM |  |  | <5.4 | 2.22e-05 | 376.933 |  | C=CC(=O)N1CC(N2CCC(c3cc4c(cn3)O[C@H](C)c3c(ncnc3N3CCOCC3)N4)CC2)C1 (single isomer, unassigned) [compound 83]
11 | > 10000 | 363 nM |  |  |  | 0.13 µM | 4.5e-05 | 345 |  |  |  |  | C=CC(=O)N1CC(N2CC(c3cc(C)c4c(c3)Nc3ncnc(-c5cnn(C)c5)c3[C@@H](C)O4)C2)C1 (single isomer, unassigned) [compound 109]
12 | > 10000 | 191 nM and 269 nM |  |  |  | 0.3 µM and 0.189 µM | 4.57e-05 | 152 | <5 | 3.89e-05 | 206.471 |  | C=CC(=O)N1CC[C@H](N2CC(c3cc(C)c4c(c3)Nc3ncnc(N5CCS(=O)(=O)CC5)c3[C@H](C)O4)C2)C1 (single isomer, unassigned) [compound 116]
13 | > 10000 | 204 nM and 339 nM |  |  |  | 0.28 µM and 0.281 µM | 4.2e-05 | 150 | <5 | 5.02e-05 | 179.017 |  | C=CC(=O)N1CC[C@@H](N2CC(c3cc(C)c4c(c3)Nc3ncnc(N5CCS(=O)(=O)CC5)c3[C@H](C)O4)C2)C1 (single isomer, unassigned) [compound 118]
14 |  | 28.2 nM and ~31.6 nM |  |  |  |  |  |  | <5 |  | 611.255 | 1089.23 | C=CC(=O)N1CC[C@H](N2CC(c3cc(C)c4c(c3)Nc3ncnc(N5CCS(=O)(=O)CC5)c3[C@@H](C)O4)C2)C1 (single isomer, unassigned) [compound 121]
15 | > 10000 | 3160 nM |  |  |  | 2.57 µM | 8.1e-05 | 31.5 |  |  |  |  | CC#CC(=O)N1CC(N2CCC(c3cc4c(c(C)n3)O[C@@H](C)c3c(ncnc3N3CCS(=O)(=O)CC3)N4)CC2)C1 (single isomer, unassigned) [compound 140]
16 | > 10000 | 316 nM and 457 nM |  |  |  | 0.283 µM and 0.18 µM | 6.55e-05 | 231 |  | 4.7e-05 | 261.659 |  | CC#CC(=O)N1CC(N2CCC(c3cc(C)c4c(c3)Nc3ncnc(N5CCS(=O)(=O)CC5)c3[C@H](C)O4)CC2)C1 (single isomer, unassigned) [compound 150]
17 | > 10000 | 195 nM and 200 nM |  |  |  | 0.0806 µM | 8.1e-05 | 879 |  |  |  |  | C#Cc1cc(C2CCN(C3CN(C(=O)C=C)C3)CC2)cc2c1O[C@H](C)c1c(ncnc1N1CCS(=O)(=O)CC1)N2 (single isomer, unassigned) [compound 189]
18 | > 10000 | 912 nM | 1.03 | 0.000166 | 161 |  |  |  |  |  |  |  | C=CC(=O)NCCN1CCC(c2ccc3c(c2)Nc2ncnc(N4CCOCC4)c2CO3)CC1 [compound 3]
19 | ~8910 | 891 nM | 0.595 | 0.000243 | 408 |  |  |  |  |  |  |  | C=CC(=O)N1CC[C@H](N2CCC(c3ccc4c(c3)Nc3ncnc(N5CCOCC5)c3CO4)CC2)C1 [compound 5]
20 | > 10000 | 3800 nM | 2.73 | 0.000504 | 185 |  |  |  |  |  |  |  | C=CC(=O)N1CC(N2CCN(c3ccc4c(c3)Nc3ncnc(N5CCOCC5)c3CO4)CC2)C1 [compound 6]
21 | 7760 | 58.9 nM |  |  |  |  |  |  |  |  |  |  | Cc1cc(C2CCN(C3CN(C(=O)C#CC(C)C)C3)CC2)cc2c1O[C@H](C)c1c(ncnc1N1CCS(=O)(=O)CC1)N2 [compound 174]
22 | ~10000 | ~26.3 nM |  |  |  |  |  |  |  |  |  |  | Cc1cc(C2CCN(C3CN(C(=O)C#CCCN4CCOCC4)C3)CC2)cc2c1O[C@H](C)c1c(ncnc1N1CCS(=O)(=O)CC1)N2 [compound 175]
23 | 5750 | < 9.77 nM |  |  |  |  |  |  |  |  |  |  | Cc1cc(C2CCN(C3CN(C(=O)C#CCCN(C)C)C3)CC2)cc2c1O[C@H](C)c1c(ncnc1N1CCS(=O)(=O)CC1)N2 [compound 178]
24 | > 10000 | ~56.2 nM |  |  |  |  |  |  |  |  |  |  | [2H]C([2H])([2H])C#CC(=O)N1CC(C)(N2CCC(c3cc(C)c4c(c3)Nc3ncnc(N5CCS(=O)(=O)CC5)c3[C@@H](C)O4)CC2)C1 [compound 179]
25 | > 10000 | < 9.77 nM |  |  |  |  |  |  |  |  |  |  | Cc1cc(C2CCN(C3(C)CN(C(=O)C#CCCN4CCOCC4)C3)CC2)cc2c1O[C@H](C)c1c(ncnc1N1CCS(=O)(=O)CC1)N2 [compound 180]
26 | 2340 | 41.7 nM |  |  |  |  |  |  |  |  |  |  | Cc1cc(C2CCN(C3(C)CN(C(=O)C#CCN(C)C)C3)CC2)cc2c1O[C@H](C)c1c(ncnc1N1CCS(=O)(=O)CC1)N2 [compound 181]
